Where two headings read alike, the source gives them in different places.
Target: T1, Human TREM2 (Homo sapiens, UniProt Q9NZC2)
T1 construct: expressed in transfected cells
Test: Human TREM2 activity: cellular phosphorylation of Syk (AlphaLISA SureFire Ultra p-SYK) in HEK293/DAP12+TREM2 stable cell line
Format: cell-based
Settings: for Emax: HEK293; for EC50: phospho-Syk AlphaLISA signal, HEK293/DAP12+TREM2 cells, concentration giving 50% of maximal response, read-out: EC50
Method in brief: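 HEK293 cells stably co-expressing human TREM2 and DAP12 were seeded at 10,000 cells/well and used 20–24 h later. Compounds were tested at 8 concentrations (top 100 μM, 1:6 steps, 0.5% DMSO) for 30 min at 37 °C. Syk phosphorylation at Tyr525/526 was read in lysates by AlphaLISA SureFire Ultra.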

[1] = maximal response relative to reference agonist example 1B (remaining examples), read-out: Emax

T1 sequence (Q9NZC2 19-230): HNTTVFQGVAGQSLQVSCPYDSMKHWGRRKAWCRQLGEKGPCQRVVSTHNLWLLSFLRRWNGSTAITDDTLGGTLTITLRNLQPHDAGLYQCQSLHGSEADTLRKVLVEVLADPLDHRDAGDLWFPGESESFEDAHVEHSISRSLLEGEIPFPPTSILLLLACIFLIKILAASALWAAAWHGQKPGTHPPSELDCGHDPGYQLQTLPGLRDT
T1 sequence (O43914 22-113 partner): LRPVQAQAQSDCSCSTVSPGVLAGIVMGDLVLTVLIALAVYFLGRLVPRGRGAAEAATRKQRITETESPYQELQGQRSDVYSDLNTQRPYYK

Compound	Emax [1]	EC50	Emax
Cc1nc2c(-c3cc(F)c(F)cc3F)nc(N3C[C@@H](c4cnn(C)c4)OC4(CCC4)C3)cc2c(=O)n1C (single isomer, unassigned) [Example 152A]	75 to 110%	100 to 1000 nM	–
Cc1cc([C@@H]2CN(c3cc4c(=O)n(C)c(C)nc4c(-c4ccc(C(F)F)nc4)n3)C[C@H](C)O2)ccn1 (single isomer, unassigned) [Example 192A]	< 75%	100 to 1000 nM	–
Cc1nc2c(-c3ccc(C(F)(F)F)nc3)nc(N3C[C@H](c4cnn(C)c4)OC(C)(C)C3)nc2c(=O)n1C (single isomer, unassigned) [Example 102B]	< 75%	> 1000 nM	–
Cc1nc2c(-c3ccc(Cl)cc3F)nc(N3CCOC(c4ncc[nH]4)C3)nc2c(=O)n1C (stereo not shown) [Example 81, 6-(2-(1H-imidazol-2-yl)morpholino)-8-(4-chloro-2-fluorophenyl)-2,3-dimethylpyrimido[5,4-d]pyrimidin-4(3H)-one]	< 75%	> 1000 nM	–
Cc1nc2c(nc(N3CCOC(c4cnn(C)c4)C3)nc2[C@H]2CC[C@@H](C)CC2)c(=O)n1C (stereo partly shown) [Example 12a, 2,3-dimethyl-6-(2-(1-methyl-1H-pyrazol-4-yl)morpholino)-8-((1s,4s)-4-methylcyclohexyl)pyrimido[5,4-d]pyrimidin-4 (3H)-one]	75 to 110%	> 1000 nM	–
Cc1nc2c(-c3ccc(F)c(F)c3F)nc(N3CCOC(c4cnn(C)c4)C3)nc2c(=O)n1C (stereo not shown) [Example 6, 2,3-dimethyl-6-(2-(1-methyl-1H-pyrazol-4-yl)morpholino)-8-(2,3,4-trifluorophenyl)pyrimido[5,4-d]pyrimidin-4(3H)-one]	75 to 110%	> 1000 nM	–
Cc1cc([C@H]2C[C@@H](c3cc4c(=O)n(C)c(C)nc4c(-c4ccc(C(F)(F)F)cc4F)n3)CCO2)ccn1 (single isomer, unassigned) [Example 168B]	75 to 110%	1 to 10 nM	–
Cc1nc2c(-c3ccc(Cl)cc3F)nc(N3CCOC(C(=O)N(C)C)C3)nc2c(=O)n1C (stereo not shown) [Example 51, 4-(4-(4-chloro-2-fluorophenyl)-6,7-dimethyl-8-oxo-7,8-dihydropyrimido[5,4-d]pyrimidin-2-yl)-N,N-dimethylmorpholine-2-carboxamide]	75 to 110%	> 1000 nM	–
Cc1cc([C@H]2CN(c3nc(-c4ccc(F)cc4F)c4nc(C)n(C)c(=O)c4n3)C[C@@H](C)O2)ccn1 (single isomer, unassigned) [Example 175B]	75 to 110%	10 to 100 nM	–
Cc1nc2c(-c3cc(F)c(F)cc3F)nc(N3C[C@H](c4cnn(C)c4)OC4(CCC4)C3)cc2c(=O)n1C (single isomer, unassigned) [Example 152B]	< 75%	> 1000 nM	–
Cc1nc2c(-c3ccc(Cl)cc3F)nc(N3CCN(CCF)C(c4cnn(C)c4)C3)nc2c(=O)n1C (stereo not shown) [Example 31, 8-(4-chloro-2-fluorophenyl)-6-(4-(2-fluoroethyl)-3-(1-methyl-1H-pyrazol-4-yl)piperazin-1-yl)-2,3-dimethylpyrimido[5,4-d]pyrimidin-4(3H)-one]	75 to 110%	10 to 100 nM	–
Cn1cc(C2CN(c3nc(-c4ccc(F)cc4F)c4nc(C(F)(F)F)n(C)c(=O)c4c3F)CC3(CC3)O2)cn1 (stereo not shown) [Example 158, 8-(2,4-difluorophenyl)-5-fluoro-3-methyl-6-(5-(1-methyl-1H-pyrazol-4-yl)-4-oxa-7-azaspiro[2.5]octan-7-yl)-2-(trifluoromethyl)pyrido[3,4-d]pyrimidin-4 (3H)-one]	< 75%	100 to 1000 nM	–
Cc1cc([C@@H]2CN(c3nc(-c4ccc(C(F)(F)F)cc4F)c4nc(C)n(C)c(=O)c4n3)C[C@H](C)O2)ccn1 (single isomer, unassigned) [Example 179A]	75 to 110%	1 to 10 nM	–
Cc1cc([C@@H]2CN(c3cc4c(=O)n(C)c(C)nc4c(-c4ccc(C(F)F)nc4)n3)CC(F)(F)O2)ccn1 (single isomer, unassigned) [Example 181A]	< 75%	10 to 100 nM	–
Cc1nc2c(-c3ccc(F)cc3F)nc(N3CCO[C@@H](c4cnn(C)c4)C3)cc2c(=O)n1C (single isomer, unassigned) [Example 129A]	75 to 110%	10 to 100 nM	–
Cc1nc2c(-c3cc(F)c(F)cc3F)nc([C@H]3CCO[C@@H](c4cnn(C5CC5)c4)C3)nc2c(=O)n1C (single isomer, unassigned) [Example 97B]	< 75%	> 1000 nM	–
Cc1nc2c(-c3ccc(Cl)cc3F)nc(N3C[C@H](c4cnn(C)c4)OC(C)(C)C3)cc2c(=O)n1C (single isomer, unassigned) [Example 112B]	< 75%	100 to 1000 nM	–
Cc1cc([C@@H]2CN(c3nc(-c4ccc(F)cc4F)c4nc(C(F)(F)F)n(C)c(=O)c4n3)C[C@H](C)O2)ccn1 (single isomer, unassigned) [Example 191A]	< 75%	< 1 nM	–
Cc1cc([C@@H]2CN(c3nc(-c4ccc(F)cc4F)c4nc(C(F)(F)F)n(C)c(=O)c4n3)CCO2)ccn1 (single isomer, unassigned) [Example 154A]	75 to 110%	< 1 nM	–

Compound	Emax [1]	EC50	Emax
Cc1nc2c(-c3ccc(C(F)(F)F)nc3)nc(N3C[C@@H](c4cnn(C)c4)OC(C)(C)C3)nc2c(=O)n1C (single isomer, unassigned) [Example 102A]	75 to 110%	10 to 100 nM	–
Cc1nc2c(-c3ccc(Cl)cc3F)nc(N3C[C@@H](c4cnn(C)c4)OC4(CCC4)C3)nc2c(=O)n1C (single isomer, unassigned) [Example 109A]	75 to 110%	1 to 10 nM	–
Cc1nc2c(-c3ccc(Cl)cc3F)nc([C@@H]3CCO[C@H](c4cnn(C5CC5)c4)C3)nc2c(=O)n1C (single isomer, unassigned) [Example 24A]	75 to 110%	1 to 10 nM	–
Cn1c(C(F)(F)F)nc2c(-c3ccc(F)cc3F)nc([C@@H]3CCO[C@H](c4cnn(C5CC5)c4)C3)nc2c1=O (single isomer, unassigned) [Example 196A]	75 to 110%	1 to 10 nM	–
Cc1nc2c(-c3ccc(Cl)cc3F)nc(N3C[C@H](c4cnn(C)c4)OC(C)(C)C3)nc2c(=O)n1C (single isomer, unassigned) [Example 89B]	75 to 110%	10 to 100 nM	–
Cc1nc2c(-c3ccc(Cl)cc3F)nc(N3CCOC(c4cn(C)cn4)C3)nc2c(=O)n1C (stereo not shown) [Example 82, 8-(4-chloro-2-fluorophenyl)-2,3-dimethyl-6-(2-(1-methyl-1H-imidazol-4-yl)morpholino)pyrimido[5,4-d]pyrimidin-4(3H)-one]	75 to 110%	> 1000 nM	–
Cc1nc2c(-c3cc(F)c(F)cc3F)nc([C@@H]3CCO[C@H](c4cnn(C)c4)C3)nc2c(=O)n1C (single isomer, unassigned) [Example 38A]	< 75%	100 to 1000 nM	–
Cc1nc2c(-c3ccc(Cl)cc3F)nc([C@H]3CCO[C@@H](c4cnn(C5CC5)c4)C3)cc2c(=O)n1C (single isomer, unassigned) [Example 140B]	–	10 to 100 nM	75 to 110%
Cc1nc2c(-c3ccc(C(F)(F)F)cc3F)nc(N3C[C@H](c4cnn(C)c4)OC(C)(C)C3)nc2c(=O)n1C (single isomer, unassigned) [Example 100B]	< 75%	100 to 1000 nM	–
Cc1nc2c(-c3ccc(Cl)cc3F)cc(N3CCOC(c4cnn(C)c4)C3)cc2c(=O)n1C (stereo not shown) [Example 106, 8-(4-chloro-2-fluorophenyl)-2,3-dimethyl-6-(2-(1-methyl-1H-pyrazol-4-yl)morpholino)quinazolin-4 (3H)-one]	< 75%	100 to 1000 nM	–
Cc1nc2c(-c3ccc(C(F)(F)F)nc3)nc(N3CCC(F)(F)[C@@H](c4cnn(C)c4)C3)nc2c(=O)n1C (single isomer, unassigned) [Example 93]	75 to 110%	10 to 100 nM	–
Cc1cc([C@H]2CN(c3cc4c(=O)n(C)c(C)nc4c(-c4cc(F)c(F)cc4F)n3)CCO2)ccn1 (single isomer, unassigned) [Example 141B]	75 to 110%	10 to 100 nM	–
Cc1cc([C@@H]2CN(c3nc(-c4cc(F)c(F)cc4F)c4nc(C(F)(F)F)n(C)c(=O)c4n3)CCO2)ccn1 (single isomer, unassigned) [Example 155A]	75 to 110%	< 1 nM	–
Cc1cc([C@@H]2CN(c3nc(-c4ccc(C(F)(F)F)nc4)c4nc(C)n(C)c(=O)c4n3)CC(C)(C)O2)ccn1 (single isomer, unassigned) [Example 164A]	75 to 110%	10 to 100 nM	–
Cc1nc2c(-c3cc(F)c(F)cc3F)nc([C@@H]3CCO[C@H](c4cnn(C5CC5)c4)C3)cc2c(=O)n1C (single isomer, unassigned) [Example 139A]	75 to 110%	10 to 100 nM	–
Cc1nc2c(-c3ccc(Cl)cc3F)nc(N3CCCC(N4CC(F)(F)C4)C3)nc2c(=O)n1C (stereo not shown) [Example 80, 8-(4-chloro-2-fluorophenyl)-6-(3-(3,3-difluoroazetidin-1-yl)piperidin-1-yl)-2,3-dimethylpyrimido[5,4-d]pyrimidin-4 (3H)-one]	< 75%	> 1000 nM	–
Cc1cc([C@@H]2CN(c3nc(-c4cc(F)c(F)cc4F)c4nc(C)n(C)c(=O)c4n3)CCO2)ccn1 (single isomer, unassigned) [Example 123A]	> 110%	1 to 10 nM	–
Cc1csc(C2CN(c3nc(-c4ccc(Cl)cc4F)c4nc(C)n(C)c(=O)c4n3)CCO2)n1 (stereo not shown) [Example 45, 8-(4-chloro-2-fluorophenyl)-2,3-dimethyl-6-(2-(4-methylthiazol-2-yl)morpholino)pyrimido[5,4-d]pyrimidin-4(3H)-one]	< 75%	10 to 100 nM	–
Cc1nc2c(-c3ccc(Cl)cc3F)nc(N3CCOC(C)(c4cnn(C)c4)C3)nc2c(=O)n1C (stereo not shown) [Example 55, 8-(4-chloro-2-fluorophenyl)-2,3-dimethyl-6-(2-methyl-2-(1-methyl-1H-pyrazol-4-yl)morpholino)pyrimido[5,4-d]pyrimidin-4(3H)-one]	< 75%	> 1000 nM	–
